Test results from US7414059B2, “Pyrazolyl and imidazolyl pyrimidines as CRF antagonists” (Roche Palo Alto LLC, priority 2003, dated 2008).
Counter-ions that a name gives are not always drawn.

How the values were obtained:
CRF1 receptor = molecular target: T1, CRF1 receptor (Homo sapiens, UniProt P34998); assay: CRF1 Receptor Binding Assay; details: competition binding with [125I]Tyr0-ovine CRF, human IMR-32 neuroblastoma cell membranes; pKi derived from pIC50
T1 construct: Cell membranes are prepared according the method of Dieterich and DeSouza (1996); endogenous in cells; host or cells: IMR-32 human neuroblastoma cells (membrane preparation)
T1 sequence (P34998 24-415): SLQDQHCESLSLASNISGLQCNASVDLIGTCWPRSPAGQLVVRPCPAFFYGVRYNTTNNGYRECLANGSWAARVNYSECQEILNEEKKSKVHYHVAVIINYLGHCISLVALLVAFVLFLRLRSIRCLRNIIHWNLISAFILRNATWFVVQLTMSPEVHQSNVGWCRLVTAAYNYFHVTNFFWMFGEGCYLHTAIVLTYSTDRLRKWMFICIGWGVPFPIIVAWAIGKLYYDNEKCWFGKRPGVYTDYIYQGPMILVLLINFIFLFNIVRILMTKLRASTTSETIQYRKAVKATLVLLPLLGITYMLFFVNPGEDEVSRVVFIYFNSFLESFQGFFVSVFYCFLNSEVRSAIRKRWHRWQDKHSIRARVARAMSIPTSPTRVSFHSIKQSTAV
Description: CRF1 Receptor Binding Assay
Human IMR-32 neuroblastoma cells are grown to 80% confluence in MEM medium containing 10% heat-inactivated FBS, lmM Sodium Pyruvate, and 0.1 mM nonessential amino acids. Cell membranes are prepared according the method of Dieterich and DeSouza (1996). The cells (˜5E+9) are resuspended in 10 volumes of wash buffer (5 mM Tris HCl, 10 mM MgCl2, 2 mM EGTA, pH 7.4 at RT), homogenized with a Polytron, and then centrifuged at 45,000 G for 20 min at 4° C. The membrane pellets are washed twice with wash buffer (45,000 G for 20 min at 4° C.) and then resuspended (50 mM Tris HCl, 10 mM MgCl2, 2 mM EGTA, pH 7.4 at RT). Protein concentration is determined using Pierce reagents and BSA as standard. Aliquots of 1-1.5 mL are stored at −80° C. until binding assay.
The competition binding assay is performed in a final volume of 250 μl, which contains assay buffer (50 mM Tris-HCl, 10 mM MgCl2, 2 mM EGTA, 0.2% BSA, 0.1 mM bacitracin and 100 kIU/mL aprotinin pH 7.2 at R.T.), 0.05 nM [^125I]Tyr^0-ovine CRF (Du Pont New England Nuclear), 50 μg of membrane protein, and test compound at various concentrations. Non-specific binding is determined with 1 uM hCRF. Binding reactions are terminated after 2 hr incubation at 25° C. by filtering through 96-w GF/C filter plate using a Packard Harvester (Filtermate 196). The 96-w filter plate is pre-treated with 0.3% polyethyleneimine and pre-washed with washing buffer (50 mM Tris-HCl, 10 mM MgCl2, 2 mM EGTA, 0.2% BSA, pH 7.2 at 4° C.). Unbound radioactivity is removed by four rapid washes (0.8 ml/well) with wash buffer. The radioactivity is quantified using a Packard TopCount. Data are analyzed using non-linear iterative curve fitting to obtain IC50 and Hill slope values. PKi values are derived from pIC50 values (−log of IC50).

SMILES: Cc1ccn(-c2cc(Nc3c(Cl)cc(Cl)cc3Cl)nc(C)n2)n1 (as salt: hydrochloride) [[2-Methyl-6-(3-methyl-pyrazol-1-yl)-pyrimidin-4-yl]-(2,4,6-trichloro-phenyl)-amine]
- melting point: 245 to 247 °C

SMILES: CCCc1ccn(-c2nc(C)nc(Nc3c(Cl)cc(Cl)cc3Cl)c2C)n1 [[2,5-Dimethyl-6-(3-propyl-pyrazol-1-yl)-pyrimidin-4-yl]-(2,4,6-trichloro-phenyl)-amine]
- Ki (CRF1 receptor): 1.62 µM

SMILES: Cc1ccn(-c2cc(Nc3c(Cl)cc(Cl)cc3Cl)nc(C)n2)n1 [[2-Methyl-6-(3-methyl-pyrazol-1-yl)-pyrimidin-4-yl]-(2,4,6-trichloro-phenyl)-amine]
- Ki (CRF1 receptor): 1.07 µM

SMILES: Cc1cn(-c2nc(C)nc(Nc3c(Cl)cc(Cl)cc3Cl)c2Cl)cn1 [[5-Chloro-2-methyl-6-(4-methyl-imidazol-1-yl)-pyrimidin-4-yl]-(2,4,6-trichloro-phenyl)-amine]
- Ki (CRF1 receptor): 1.91 µM
